According to the NIST ThermoML archive (doi:10.1021/je050413l):
Several values for one entry are separate records, joined by “and”; a condition that tells them apart may be missing. Equal entries are not always repeated.

Columns and labels:
[1] = 303.15 K, Liquid; for speed of sound / viscosity: 101 kPa; for mass density: 101.33 kPa, Pycnometric method
[2] = φn = volume fraction of the nth substance listed; conditions: 303.15 K, 101 kPa, Liquid
[3] = xn = mol fraction of the nth substance listed; conditions: 303.15 K, 101 kPa, Liquid, Direct dilatometry

Cc1ccccc1Cl [2-chlorotoluene]
[1]
Conditions	mass density [kg/m3]	speed of sound [m/s]	viscosity [mPa·s]
–	1072.77	1284	0.887

Cc1ccccc1Cl [2-chlorotoluene] + CC(=O)c1ccccc1
[2], φ2 = 0
Conditions	speed of sound [m/s]	viscosity [mPa·s]
–	1284	0.887

Cc1ccccc1[N+](=O)[O-] [2-nitrotoluene]
[1]
Conditions	mass density [kg/m3]	viscosity [mPa·s]
–	1153.26	1.911

Cc1ccccc1[N+](=O)[O-] [2-nitrotoluene] + CC(=O)c1ccccc1
Conditions	excess molar volume [m3/mol]	speed of sound [m/s]	viscosity [mPa·s]
[2], φ2 = 0	–	–	1.911
[2], φ2 = 0.0805	–	2017	1.91
[2], φ2 = 0.1011	–	1997	1.903
[2], φ2 = 0.2132	–	1889	1.857
[2], φ2 = 0.3245	–	1803	1.817
[2], φ2 = 0.4197	–	1737	1.781
[2], φ2 = 0.5086	–	1681	1.747
[2], φ2 = 0.6196	–	1622	1.701
[2], φ2 = 0.7297	–	1568	1.652
[2], φ2 = 0.7911	–	1541	1.624
[2], φ2 = 0.8704	–	1508	1.582
[3], x2 = 0.0812	1.1e-08	–	–
[3], x2 = 0.1019	1.5e-08	–	–
[3], x2 = 0.2147	2.4e-08	–	–
[3], x2 = 0.3265	3.3e-08	–	–
[3], x2 = 0.4219	3.9e-08	–	–
[3], x2 = 0.5109	4.2e-08	–	–
[3], x2 = 0.6217	3.7e-08	–	–
[3], x2 = 0.7315	2.6e-08	–	–
[3], x2 = 0.7926	2e-08	–	–
[3], x2 = 0.8714	1.1e-08	–	–

Cc1cccc(Cl)c1 [3-chlorotoluene]
[1]
Conditions	mass density [kg/m3]	speed of sound [m/s]	viscosity [mPa·s]
–	1065.22	1280	0.782

Cc1cccc(Cl)c1 [3-chlorotoluene] + CC(=O)c1ccccc1
Conditions	excess molar volume, [3] [m3/mol]	speed of sound, [2] [m/s]	viscosity, [2] [mPa·s]
x2 = 0.0524	1e-08	–	–
x2 = 0.103	1.5e-08	–	–
x2 = 0.2141	2.3e-08	–	–
x2 = 0.3119	2.9e-08	–	–
x2 = 0.4266	3.3e-08	–	–
x2 = 0.5009	3.4e-08	–	–
x2 = 0.6174	3.2e-08	–	–
x2 = 0.705	2.8e-08	–	–
x2 = 0.8519	1.5e-08	–	–
x2 = 0.952	6e-09	–	–
φ2 = 0	–	1280	0.782
φ2 = 0.052	–	1297	0.891
φ2 = 0.1022	–	1315	0.901
φ2 = 0.2127	–	1346	1.002
φ2 = 0.3101	–	1370	1.073
φ2 = 0.4246	–	1395	1.16
φ2 = 0.4988	–	1412	1.222
φ2 = 0.6154	–	1431	1.31
φ2 = 0.7033	–	1438	1.37
φ2 = 0.8508	–	1449	1.458
φ2 = 0.9516	–	1455	1.503

Cc1cccc([N+](=O)[O-])c1 [3-nitrotoluene]
[1]
Conditions	mass density [kg/m3]	viscosity [mPa·s]
–	1147.62	1.775

Cc1cccc([N+](=O)[O-])c1 [3-nitrotoluene] + CC(=O)c1ccccc1
Conditions	excess molar volume [m3/mol]	speed of sound [m/s]	viscosity [mPa·s]
[2], φ2 = 0	–	–	1.775
[2], φ2 = 0.0972	–	1987	1.748
[2], φ2 = 0.116	–	1972	1.745
[2], φ2 = 0.2051	–	1892	1.731
[2], φ2 = 0.3085	–	1808	1.713
[2], φ2 = 0.4191	–	1737	1.694
[2], φ2 = 0.5383	–	1666	1.666
[2], φ2 = 0.6446	–	1608	1.64
[2], φ2 = 0.7076	–	1580	1.623
[2], φ2 = 0.7994	–	1539	1.594
[2], φ2 = 0.886	–	1503	1.564
[3], x2 = 0.0984	1.8e-08	–	–
[3], x2 = 0.1174	2.1e-08	–	–
[3], x2 = 0.2074	3e-08	–	–
[3], x2 = 0.3115	3.9e-08	–	–
[3], x2 = 0.4225	4.7e-08	–	–
[3], x2 = 0.5417	5e-08	–	–
[3], x2 = 0.6478	4.3e-08	–	–
[3], x2 = 0.7105	3.5e-08	–	–
[3], x2 = 0.8016	2.5e-08	–	–
[3], x2 = 0.8874	1.4e-08	–	–

Cc1ccc(Cl)cc1 [4-chlorotoluene]
[1]
Conditions	mass density [kg/m3]	speed of sound [m/s]	viscosity [mPa·s]
–	1060.54	1271	0.9

Cc1ccc(Cl)cc1 [4-chlorotoluene] + CC(=O)c1ccccc1
Conditions	excess molar volume, [3] [m3/mol]	speed of sound, [2] [m/s]	viscosity, [2] [mPa·s]
x2 = 0.087	1.6e-08	–	–
x2 = 0.1206	2e-08	–	–
x2 = 0.2175	2.7e-08	–	–
x2 = 0.3009	3.4e-08	–	–
x2 = 0.4017	4.1e-08	–	–
x2 = 0.5224	4.4e-08	–	–
x2 = 0.6211	3.9e-08	–	–
x2 = 0.7025	3.2e-08	–	–
x2 = 0.8214	2.1e-08	–	–
x2 = 0.8774	1.6e-08	–	–
φ2 = 0	–	1271	0.9
φ2 = 0.0807	–	1304	0.903
φ2 = 0.1193	–	1314	1.011
φ2 = 0.2153	–	1343	1.058
φ2 = 0.2982	–	1371	1.118
φ2 = 0.3986	–	1406	1.198
φ2 = 0.5192	–	1419	1.286
φ2 = 0.6181	–	1430	1.352
φ2 = 0.6998	–	1440	1.4
φ2 = 0.8195	–	1448	1.469
φ2 = 0.876	–	1453	1.496

CC(=O)c1ccccc1 [acetophenone]
[1]
Conditions	mass density [kg/m3]	speed of sound	viscosity [mPa·s]
–	1019.43	1460 m/s and 1466 m/s	1.511

CC(=O)c1ccccc1 [acetophenone] + Cc1ccc(Cl)cc1
[2], φ1 = 1
Conditions	speed of sound [m/s]	viscosity [mPa·s]
–	1460	1.511

CC(=O)c1ccccc1 [acetophenone] + Cc1cccc(Cl)c1
[2], φ1 = 1
Conditions	speed of sound [m/s]	viscosity [mPa·s]
–	1460	1.511

CC(=O)c1ccccc1 [acetophenone] + Cc1cccc([N+](=O)[O-])c1
[2], φ1 = 1
Conditions	speed of sound [m/s]	viscosity [mPa·s]
–	1466	1.511

CC(=O)c1ccccc1 [acetophenone] + Cc1ccccc1Cl
Conditions	excess molar volume, [3] [m3/mol]	speed of sound, [2] [m/s]	viscosity, [2] [mPa·s]
x1 = 0.0901	6e-09	–	–
x1 = 0.151	9e-09	–	–
x1 = 0.2271	1.3e-08	–	–
x1 = 0.3205	1.6e-08	–	–
x1 = 0.4021	1.8e-08	–	–
x1 = 0.5219	2e-08	–	–
x1 = 0.6224	2e-08	–	–
x1 = 0.702	1.8e-08	–	–
x1 = 0.8194	1.5e-08	–	–
x1 = 0.9005	9e-09	–	–
φ1 = 0.09	–	1310	0.901
φ1 = 0.1508	–	1326	0.949
φ1 = 0.2269	–	1345	0.999
φ1 = 0.3202	–	1368	1.066
φ1 = 0.4018	–	1387	1.123
φ1 = 0.5216	–	1409	1.225
φ1 = 0.6221	–	1423	1.305
φ1 = 0.7017	–	1432	1.41
φ1 = 0.8192	–	1448	1.465
φ1 = 0.9004	–	1451	1.502
φ1 = 1	–	1460	1.511

CC(=O)c1ccccc1 [acetophenone] + Cc1ccccc1[N+](=O)[O-]
[2], φ1 = 1
Conditions	speed of sound [m/s]	viscosity [mPa·s]
–	1460	1.511
